Assays:
Experiment in all cases: KINOMEscan competition binding
Details in all cases: compound 10.0 µM
TEC (human) = TEC (human) (UniProt P42680)
MLTK (human) = MLTK (human) (UniProt Q9NYL2)
CDK11B (human) = CDK11B (human) (UniProt P21127)
EIF2AK2 (human) = EIF2AK2 (human) (UniProt P19525)
CDC42BPB (human) = CDC42BPB (human) (UniProt Q9Y5S2)
[1] = molecular target: TYK2 JH2 pseudokinase (human) (UniProt P29597)
PAK4 (human) = PAK4 (human) (UniProt O96013)
RET (human) = RET (human) (UniProt P07949)
ABL2 (human) = ABL2 (human) (UniProt P42684)
MYO3B (human) = MYO3B (human) (UniProt Q8WXR4)
CAMKK1 (human) = CAMKK1 (human) (UniProt Q8N5S9)
Sequence of CAMKK1 (human) (Q8N5S9 whole entry, looked up): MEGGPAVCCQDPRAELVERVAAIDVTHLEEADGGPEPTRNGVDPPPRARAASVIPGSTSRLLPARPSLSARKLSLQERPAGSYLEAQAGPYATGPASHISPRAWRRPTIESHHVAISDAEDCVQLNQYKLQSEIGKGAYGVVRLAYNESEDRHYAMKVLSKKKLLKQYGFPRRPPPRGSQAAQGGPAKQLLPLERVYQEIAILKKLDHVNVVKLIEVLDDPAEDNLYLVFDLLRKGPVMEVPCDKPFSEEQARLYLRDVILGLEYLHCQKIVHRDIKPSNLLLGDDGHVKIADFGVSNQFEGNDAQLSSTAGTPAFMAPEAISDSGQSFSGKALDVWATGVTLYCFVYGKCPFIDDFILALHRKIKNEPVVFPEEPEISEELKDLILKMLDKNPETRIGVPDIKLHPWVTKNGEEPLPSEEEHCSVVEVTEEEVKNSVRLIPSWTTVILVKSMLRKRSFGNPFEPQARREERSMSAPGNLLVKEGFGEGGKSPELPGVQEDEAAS

MAP3K3 (human) = MAP3K3 (human) (UniProt Q99759)
CDK18 (human) = CDK18 (human) (UniProt Q07002)
Sequence of CDK18 (human) (Q07002 whole entry, looked up): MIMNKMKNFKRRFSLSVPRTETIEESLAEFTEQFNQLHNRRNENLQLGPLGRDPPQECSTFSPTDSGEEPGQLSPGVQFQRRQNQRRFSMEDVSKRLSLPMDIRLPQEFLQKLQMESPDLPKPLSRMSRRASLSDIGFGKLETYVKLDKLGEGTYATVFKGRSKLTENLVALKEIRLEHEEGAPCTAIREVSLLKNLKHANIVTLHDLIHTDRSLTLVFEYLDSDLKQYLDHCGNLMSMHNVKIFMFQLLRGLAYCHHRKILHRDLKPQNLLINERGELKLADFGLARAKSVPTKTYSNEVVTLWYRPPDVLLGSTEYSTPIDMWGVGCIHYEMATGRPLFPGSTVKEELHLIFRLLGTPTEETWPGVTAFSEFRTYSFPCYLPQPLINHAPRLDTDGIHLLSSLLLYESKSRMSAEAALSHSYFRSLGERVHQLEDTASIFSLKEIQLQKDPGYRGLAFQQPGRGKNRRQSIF

PRKACA (human) = PRKACA (human) (UniProt P17612)
PDGFRB (human) = PDGFRB (human) (UniProt P09619)
MYLK (human) = MYLK (human) (UniProt Q15746)
IRAK3 (human) = IRAK3 (human) (UniProt Q9Y616)
MAPKAPK5 (human) = MAPKAPK5 (human) (UniProt Q8IW41)
[2] = test system: KIT (human), P10721 [D816V]
CDK8 (human) = CDK8 (human) (UniProt P49336)
MAP2K3 (human) = MAP2K3 (human) (UniProt P46734)
Sequence of MAP2K3 (human) (P46734 whole entry, looked up): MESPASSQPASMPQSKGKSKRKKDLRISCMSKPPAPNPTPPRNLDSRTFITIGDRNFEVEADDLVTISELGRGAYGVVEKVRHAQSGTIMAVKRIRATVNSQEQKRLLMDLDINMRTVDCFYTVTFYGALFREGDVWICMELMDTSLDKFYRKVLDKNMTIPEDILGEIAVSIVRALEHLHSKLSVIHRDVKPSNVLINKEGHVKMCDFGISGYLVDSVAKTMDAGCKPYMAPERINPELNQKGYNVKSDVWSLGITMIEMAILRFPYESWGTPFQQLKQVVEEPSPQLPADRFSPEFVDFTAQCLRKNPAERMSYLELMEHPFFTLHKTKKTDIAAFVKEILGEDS

PRKD2 (human) = PRKD2 (human) (UniProt Q9BZL6)
CAMK4 (human) = CAMK4 (human) (UniProt Q16566)
PIM1 (human) = PIM1 (human) (UniProt P11309)
Sequence of PIM1 (human) (P11309 whole entry, looked up): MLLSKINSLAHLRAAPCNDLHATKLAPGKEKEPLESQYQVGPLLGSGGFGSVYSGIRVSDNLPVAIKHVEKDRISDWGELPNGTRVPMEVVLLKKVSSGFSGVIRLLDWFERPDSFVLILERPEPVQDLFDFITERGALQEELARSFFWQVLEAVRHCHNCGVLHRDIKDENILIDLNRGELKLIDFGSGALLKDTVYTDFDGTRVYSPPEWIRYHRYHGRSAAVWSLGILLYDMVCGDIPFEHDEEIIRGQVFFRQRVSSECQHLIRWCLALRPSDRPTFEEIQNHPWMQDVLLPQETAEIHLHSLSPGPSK

CSNK1D (human) = CSNK1D (human) (UniProt P48730)
Sequence of CSNK1D (human) (P48730 whole entry, looked up): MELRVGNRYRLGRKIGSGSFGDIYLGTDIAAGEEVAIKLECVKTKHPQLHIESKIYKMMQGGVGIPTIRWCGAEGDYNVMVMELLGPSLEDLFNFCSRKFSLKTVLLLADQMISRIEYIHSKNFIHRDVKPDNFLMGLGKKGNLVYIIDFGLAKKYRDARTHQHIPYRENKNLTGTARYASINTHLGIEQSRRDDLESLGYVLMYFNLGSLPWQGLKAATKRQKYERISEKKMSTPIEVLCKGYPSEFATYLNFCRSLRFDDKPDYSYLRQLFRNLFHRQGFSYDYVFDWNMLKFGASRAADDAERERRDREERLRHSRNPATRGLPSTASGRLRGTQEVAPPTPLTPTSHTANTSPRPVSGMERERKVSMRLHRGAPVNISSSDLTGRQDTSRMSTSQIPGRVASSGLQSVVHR

MAP2K6 (human) = MAP2K6 (human) (UniProt P52564)
RPS6KA1 KD1 (human) = RPS6KA1 KD1 (human) (UniProt Q15418)
EPHB2 (human) = EPHB2 (human) (UniProt P29323)
Sequence of EPHB2 (human) (P29323 whole entry, looked up): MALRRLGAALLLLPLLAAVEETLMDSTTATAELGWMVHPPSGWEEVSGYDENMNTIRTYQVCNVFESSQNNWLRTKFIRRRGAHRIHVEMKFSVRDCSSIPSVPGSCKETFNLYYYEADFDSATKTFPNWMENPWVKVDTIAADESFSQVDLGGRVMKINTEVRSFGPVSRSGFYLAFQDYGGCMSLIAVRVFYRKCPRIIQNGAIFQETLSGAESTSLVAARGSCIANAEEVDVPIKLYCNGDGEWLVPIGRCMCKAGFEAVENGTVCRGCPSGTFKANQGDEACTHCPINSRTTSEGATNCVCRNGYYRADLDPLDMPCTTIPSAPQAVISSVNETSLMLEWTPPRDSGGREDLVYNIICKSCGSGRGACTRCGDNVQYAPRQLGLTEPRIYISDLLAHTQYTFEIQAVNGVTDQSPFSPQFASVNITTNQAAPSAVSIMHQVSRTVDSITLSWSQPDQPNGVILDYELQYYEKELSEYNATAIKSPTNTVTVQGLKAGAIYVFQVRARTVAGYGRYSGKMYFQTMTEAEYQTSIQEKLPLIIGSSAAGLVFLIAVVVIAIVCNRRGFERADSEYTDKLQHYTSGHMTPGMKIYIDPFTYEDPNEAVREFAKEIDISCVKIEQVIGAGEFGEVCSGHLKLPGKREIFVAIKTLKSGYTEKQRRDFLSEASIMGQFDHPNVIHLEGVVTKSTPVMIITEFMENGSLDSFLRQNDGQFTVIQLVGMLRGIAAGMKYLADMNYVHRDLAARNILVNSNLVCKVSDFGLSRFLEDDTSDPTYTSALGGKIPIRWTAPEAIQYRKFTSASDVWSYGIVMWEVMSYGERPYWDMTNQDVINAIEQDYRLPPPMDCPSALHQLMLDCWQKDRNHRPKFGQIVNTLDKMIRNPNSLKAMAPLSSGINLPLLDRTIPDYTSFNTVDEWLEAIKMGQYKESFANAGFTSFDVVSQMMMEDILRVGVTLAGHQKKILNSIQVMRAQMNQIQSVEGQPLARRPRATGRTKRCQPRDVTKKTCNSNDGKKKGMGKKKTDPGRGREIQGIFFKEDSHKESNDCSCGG

CDK17 (human) = CDK17 (human) (UniProt Q00537)
Sequence of CDK17 (human) (Q00537 whole entry, looked up): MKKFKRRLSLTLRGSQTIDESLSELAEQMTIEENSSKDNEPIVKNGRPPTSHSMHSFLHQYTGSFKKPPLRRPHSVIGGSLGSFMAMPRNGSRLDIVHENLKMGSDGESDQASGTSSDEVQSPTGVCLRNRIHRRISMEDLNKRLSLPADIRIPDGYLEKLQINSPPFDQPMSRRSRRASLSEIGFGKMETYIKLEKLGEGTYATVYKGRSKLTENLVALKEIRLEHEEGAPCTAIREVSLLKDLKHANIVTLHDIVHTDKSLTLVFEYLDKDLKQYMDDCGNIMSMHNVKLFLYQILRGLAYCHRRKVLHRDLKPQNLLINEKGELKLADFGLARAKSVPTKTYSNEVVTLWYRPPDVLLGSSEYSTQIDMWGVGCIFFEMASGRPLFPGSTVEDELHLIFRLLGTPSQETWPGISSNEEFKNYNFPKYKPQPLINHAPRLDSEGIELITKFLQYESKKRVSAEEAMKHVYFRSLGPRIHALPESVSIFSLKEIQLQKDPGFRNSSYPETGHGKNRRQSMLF

NEK9 (human) = NEK9 (human) (UniProt Q8TD19)
BMPR1A (human) = BMPR1A (human) (UniProt P36894)
SRC (human) = SRC (human) (UniProt P12931)
MARK1 (human) = MARK1 (human) (UniProt Q9P0L2)
FYN (human) = FYN (human) (UniProt P06241)
BMPR2 (human) = BMPR2 (human) (UniProt Q13873)
CDKL2 (human) = CDKL2 (human) (UniProt Q92772)
STK11 (human) = STK11 (human) (UniProt Q15831)
[3] = test system: ABL1 (human), P00519 [M351T]
PIK3CD (human) = PIK3CD (human) (UniProt O00329)
STK33 (human) = STK33 (human) (UniProt Q9BYT3)

Sequence of MLTK (human) (Q9NYL2 whole entry, looked up): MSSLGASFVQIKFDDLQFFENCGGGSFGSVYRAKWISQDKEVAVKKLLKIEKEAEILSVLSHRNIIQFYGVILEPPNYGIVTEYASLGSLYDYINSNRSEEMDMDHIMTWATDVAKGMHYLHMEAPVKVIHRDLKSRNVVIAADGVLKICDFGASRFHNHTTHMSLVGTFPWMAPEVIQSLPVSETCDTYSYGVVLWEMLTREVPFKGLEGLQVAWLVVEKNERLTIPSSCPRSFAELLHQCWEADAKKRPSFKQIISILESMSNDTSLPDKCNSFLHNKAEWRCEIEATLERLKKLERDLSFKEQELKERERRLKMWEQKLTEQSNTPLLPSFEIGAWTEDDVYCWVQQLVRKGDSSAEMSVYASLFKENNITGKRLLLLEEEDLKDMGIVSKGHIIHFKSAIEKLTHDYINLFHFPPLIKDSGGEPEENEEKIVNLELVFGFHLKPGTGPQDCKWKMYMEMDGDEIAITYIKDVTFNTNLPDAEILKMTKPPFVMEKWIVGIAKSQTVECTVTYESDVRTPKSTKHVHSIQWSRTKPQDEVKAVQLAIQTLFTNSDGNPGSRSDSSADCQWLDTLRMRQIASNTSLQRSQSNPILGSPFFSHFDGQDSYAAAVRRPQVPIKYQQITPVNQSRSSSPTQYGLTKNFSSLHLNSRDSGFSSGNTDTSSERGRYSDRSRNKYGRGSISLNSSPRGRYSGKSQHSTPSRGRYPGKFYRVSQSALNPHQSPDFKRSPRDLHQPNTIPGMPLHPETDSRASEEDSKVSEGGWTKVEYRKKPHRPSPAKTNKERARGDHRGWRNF
Sequence of PAK4 (human) (O96013 whole entry, looked up): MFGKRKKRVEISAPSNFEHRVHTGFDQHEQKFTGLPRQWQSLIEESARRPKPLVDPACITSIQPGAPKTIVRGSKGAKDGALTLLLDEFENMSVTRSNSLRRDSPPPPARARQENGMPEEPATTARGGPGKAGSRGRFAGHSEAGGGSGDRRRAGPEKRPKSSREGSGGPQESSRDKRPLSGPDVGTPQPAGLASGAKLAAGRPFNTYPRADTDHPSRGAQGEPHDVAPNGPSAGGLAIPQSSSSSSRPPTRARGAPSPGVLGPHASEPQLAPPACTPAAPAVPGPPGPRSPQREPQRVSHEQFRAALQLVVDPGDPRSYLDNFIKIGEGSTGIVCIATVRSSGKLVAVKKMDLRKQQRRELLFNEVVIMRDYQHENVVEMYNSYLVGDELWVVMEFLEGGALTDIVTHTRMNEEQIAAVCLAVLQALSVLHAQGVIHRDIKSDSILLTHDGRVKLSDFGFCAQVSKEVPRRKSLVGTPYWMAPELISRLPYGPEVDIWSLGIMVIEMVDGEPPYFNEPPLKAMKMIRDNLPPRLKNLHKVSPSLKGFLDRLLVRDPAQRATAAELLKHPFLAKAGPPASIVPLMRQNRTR

SMILES	kinase still bound, per cent of control (TEC (human)) [%]	kinase still bound, per cent of control (MLTK (human)) [%]	kinase still bound, per cent of control (CDK11B (human)) [%]	kinase still bound, per cent of control (EIF2AK2 (human)) [%]	kinase still bound, per cent of control (CDC42BPB (human)) [%]	kinase still bound, per cent of control [1] [%]	kinase still bound, per cent of control (PAK4 (human)) [%]	kinase still bound, per cent of control (RET (human)) [%]	kinase still bound, per cent of control (ABL2 (human)) [%]	kinase still bound, per cent of control (MYO3B (human)) [%]	kinase still bound, per cent of control (CAMKK1 (human)) [%]	kinase still bound, per cent of control (MAP3K3 (human)) [%]	kinase still bound, per cent of control (CDK18 (human)) [%]	kinase still bound, per cent of control (PRKACA (human)) [%]	kinase still bound, per cent of control (PDGFRB (human)) [%]	kinase still bound, per cent of control (MYLK (human)) [%]	kinase still bound, per cent of control (IRAK3 (human)) [%]	kinase still bound, per cent of control (MAPKAPK5 (human)) [%]	kinase still bound, per cent of control [2] [%]	kinase still bound, per cent of control (CDK8 (human)) [%]	also measured
Cc1ccc(C(=O)Nc2cccc(C(F)(F)F)c2)cc1Nc1cncc(C(N)=O)c1	100	6.9	100	100	100	100	100	100	21	100	100	100	100	100	0.05	100	100	100	100	100	kinase still bound, per cent of control (MAP2K3 (human)): 100%; kinase still bound, per cent of control (PRKD2 (human)): 100%; kinase still bound, per cent of control (CAMK4 (human)): 100%; kinase still bound, per cent of control (PIM1 (human)): 100%; kinase still bound, per cent of control (CSNK1D (human)): 100%; kinase still bound, per cent of control (MAP2K6 (human)): 100%; kinase still bound, per cent of control (RPS6KA1 KD1 (human)): 100%; kinase still bound, per cent of control (EPHB2 (human)): 1.6%; kinase still bound, per cent of control (CDK17 (human)): 100%; kinase still bound, per cent of control (NEK9 (human)): 100%; kinase still bound, per cent of control (BMPR1A (human)): 100%; kinase still bound, per cent of control (SRC (human)): 100%; kinase still bound, per cent of control (MARK1 (human)): 100%; kinase still bound, per cent of control (FYN (human)): 100%; kinase still bound, per cent of control (BMPR2 (human)): 100%; kinase still bound, per cent of control (CDKL2 (human)): 100%; kinase still bound, per cent of control (STK11 (human)): 100%; kinase still bound, per cent of control [3]: 27%; kinase still bound, per cent of control (PIK3CD (human)): 100%; kinase still bound, per cent of control (STK33 (human)): 100%
Nc1ccc(-c2ccc3ncc4ccc(=O)n(-c5cccc(C(F)(F)F)c5)c4c3c2)cn1	100	65	100	70	96	6.3	100	100	100	87	94	84	100	100	34	95	42	100	61	100	kinase still bound, per cent of control (MAP2K3 (human)): 66%; kinase still bound, per cent of control (PRKD2 (human)): 100%; kinase still bound, per cent of control (CAMK4 (human)): 100%; kinase still bound, per cent of control (PIM1 (human)): 92%; kinase still bound, per cent of control (CSNK1D (human)): 63%; kinase still bound, per cent of control (MAP2K6 (human)): 93%; kinase still bound, per cent of control (RPS6KA1 KD1 (human)): 100%; kinase still bound, per cent of control (EPHB2 (human)): 98%; kinase still bound, per cent of control (CDK17 (human)): 98%; kinase still bound, per cent of control (NEK9 (human)): 100%; kinase still bound, per cent of control (BMPR1A (human)): 100%; kinase still bound, per cent of control (SRC (human)): 100%; kinase still bound, per cent of control (MARK1 (human)): 100%; kinase still bound, per cent of control (FYN (human)): 92%; kinase still bound, per cent of control (BMPR2 (human)): 100%; kinase still bound, per cent of control (CDKL2 (human)): 91%; kinase still bound, per cent of control (STK11 (human)): 98%; kinase still bound, per cent of control [3]: 100%; kinase still bound, per cent of control (PIK3CD (human)): 14%; kinase still bound, per cent of control (STK33 (human)): 100%

— the kinase profiling compilation of Christmann-Franck et al. (2016)
